For this assay, the target named is T1, full-length human Mineralocorticoid Receptor (MR) (Homo sapiens, UniProt P08235).
T1 construct: host or cells: PathHunter CHO-K1 MR cells
T1 sequence (P08235 1-984): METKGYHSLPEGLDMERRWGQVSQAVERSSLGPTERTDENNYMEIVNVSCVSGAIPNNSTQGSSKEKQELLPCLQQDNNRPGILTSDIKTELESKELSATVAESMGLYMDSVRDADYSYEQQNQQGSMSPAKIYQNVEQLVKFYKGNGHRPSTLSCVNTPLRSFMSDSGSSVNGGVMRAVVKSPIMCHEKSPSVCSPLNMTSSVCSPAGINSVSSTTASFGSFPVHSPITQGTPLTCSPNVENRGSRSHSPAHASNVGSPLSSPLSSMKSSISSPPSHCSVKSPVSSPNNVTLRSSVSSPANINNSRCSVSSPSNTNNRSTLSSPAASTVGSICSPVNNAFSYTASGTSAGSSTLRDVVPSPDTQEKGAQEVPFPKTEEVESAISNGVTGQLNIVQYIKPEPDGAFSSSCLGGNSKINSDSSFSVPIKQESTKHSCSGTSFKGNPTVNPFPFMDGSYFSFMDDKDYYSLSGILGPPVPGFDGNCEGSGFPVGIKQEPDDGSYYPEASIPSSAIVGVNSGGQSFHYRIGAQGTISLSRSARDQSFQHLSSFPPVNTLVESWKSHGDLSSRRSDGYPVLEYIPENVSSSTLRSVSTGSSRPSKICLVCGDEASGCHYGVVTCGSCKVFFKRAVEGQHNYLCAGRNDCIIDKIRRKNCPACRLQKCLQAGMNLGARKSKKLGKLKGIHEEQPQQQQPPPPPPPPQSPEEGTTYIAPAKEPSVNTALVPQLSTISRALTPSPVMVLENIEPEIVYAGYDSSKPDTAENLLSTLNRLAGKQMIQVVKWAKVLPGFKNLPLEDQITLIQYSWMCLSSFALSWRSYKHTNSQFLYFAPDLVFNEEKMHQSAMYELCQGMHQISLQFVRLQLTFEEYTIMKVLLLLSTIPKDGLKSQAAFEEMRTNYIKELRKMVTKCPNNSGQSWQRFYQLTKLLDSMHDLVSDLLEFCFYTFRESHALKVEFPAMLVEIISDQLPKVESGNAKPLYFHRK
Kind of assay: human MR NH Pro assay (PathHunter Protein:Protein interaction assay), MR antagonism. The assay is classed as cell-based. The note with it: IP = inflection point of the dose-response curve; CHO-K1 cells overexpressing human MR, aldosterone about 0.3 nM to about 1 nM, 6 hours at 37° C. The text has this: The activity of the compounds of the present invention regarding mineralocorticoid receptor antagonism can be evaluated using the following assay.
Assessment of MR Potency in HMR NH Pro Assay
The human MR NH Pro assay is a commercially available PathHunter™ Protein:Protein interaction assay (DiscoveRx; http://www.discoverx.com/nhrs/prod-nhrs.php) that measures the ability of compounds to antagonize full-length human Mineralocorticoid Receptor (MR) binding to a coactivator peptide.
Stock solution was prepared at 10 μM in DMSO and stored at −20° C. for assay, dilute in assay media to 1.8 or 6 nM (6× of final concentration=about 0.3 nM to about 1.0 nM)
5. Cell line: PathHunter CHO-K1 MR cells Cat #93-0456C2, Lot No: 09B0913, from operation liquid nitrogen stock.
6. Control Antagonist: Spironolactone: Sigma #S-3378 and Eplerenone Sigma #107724-20-9 (10 mM stock concentration also prepared in DMSO and stored at −20° C.).
1. Cells are grown in F12+FBS+Hygromycin+pen/strep+Genetin
2. Cells are collected with 0.05% trypsin and the cell suspension is spun and resuspended in a volume of F12+1.5% CD-FBS and counted.
3. The cells concentration was adjusted to 4×10^5 cells/mL.
4. Cells were (25 μL/well) added to the wells of a 384 well plate.
5. The plate was then incubated at 37° C. over night in a humidified incubator with 5% CO2.
6. Test compounds were titrated starting at 4.4 mM, 10-point titration in 1:3 dilution.
Protocol for 384 well plate format: 6 hr treatment:
1. 10K exponentially growing cells/well (25 μL) were resuspended in assay media and plated into each well using the Multidrop (Thermo Electron) (use white wall, clear bottom assay plates (Costar #3570) and incubated overnight at 37° C., 5% CO2.
2. 0.25 μL 120× test compound (final DMSO concentration should be <1%) was added to each well n=2, 10 point titrations starting at 36.7 μM final concentration.
4. 5 μL of assay media was added to all wells in column 23 and 24.
5. Cells were then incubated for 6 hrs at 37° C., 5% CO2.
6. 15 μL 3× DiscoveRx detection reagent was then added to each well.
7. Plates were incubated for 1 hour at room temperature in the dark.
8. Plates were read on Envision (PerkinElmer) luminesence plate reader and analyzed using ADA.

SMILES strings stand for the structures.

The term IC50 denotes the concentration needed to halve the response being measured. The low end stands for greater potency, the high end for weaker potency. In turn, `CCC(CO)(c1ccc(C(F)(F)F)cc1)n1ncc2c(NS(C)(=O)=O)cccc21` (single isomer, unassigned) [Compound 11, N-(1-(1-hydroxy-2-(4-(trifluoromethyl)phenyl)butan-2-yl)-1H-indazol-4-yl)methanesulfonamide] gave an IC50 of 0.06 µM.
For `CS(=O)(=O)Nc1cccc2c1cnn2C(CO)(CC(F)F)c1ccc(C(F)(F)F)cc1` (single isomer, unassigned) [Compound 44, N-(1-(4,4-difluoro-l-hydroxy-2-(4-(trifluoromethyl)phenyl)butan-2-yl)-1H-indazol-4-yl)methanesulfonamide] the value was 0.539 µM.
For `CCC(c1ccc(S(F)(F)(F)(F)F)cc1)(C(C)O)n1ncc2c(NS(C)(=O)=O)cccc21` (single isomer, unassigned) [Compound 22, N-(1-{2-hydroxy-3-[4-(pentafluoro-λ^6-sulfanyl)phenyl]pentan-3-yl}-1H-indazol-4-yl)methanesulfonamide] the value was 3.81 µM; for `CCC(c1ccc(C(F)(F)F)cc1)(C(C)O)n1ncc2c(NS(C)(=O)=O)cc(F)cc21` (single isomer, unassigned) [Compound 34, N-(6-fluoro-1-(2-hydroxy-3-(4-(trifluoromethyl)phenyl)pentan-3-yl)-1H-indazol-4-yl)methanesulfonamide], 1.14 µM.
`CCC(c1ccc(C(F)(F)F)cc1)(C(O)C(F)F)n1ncc2c(NS(=O)(=O)CC)cccc21` (single isomer, unassigned) [Compound 49, N-(1-(1,1-difluoro-2-hydroxy-3-(4-(trifluoromethyl)phenyl)pentan-3-yl)-1H-indazol-4-yl)ethanesulfonamide] displayed an IC50 of 0.007 µM.
Then `CCC(C(N)=O)(c1ccc(S(F)(F)(F)(F)F)cc1)n1ncc2c(NS(C)(=O)=O)cccc21` (racemic) [Compound 27, 2-{4-[(methylsulfonyl)amino]-1H-indazol-1-yl}-2-[4-(pentafluoro-λ^6-sulfanyl)phenyl]butanamide], with 3.61 µM.
In turn, `CCC(O)C(CC(F)F)(c1ccc(C(F)(F)F)cc1)n1ncc2c(NS(=O)(=O)CC)cccc21` (single isomer, unassigned) [Compound 56, N-(1-(1,1-difluoro-4-hydroxy-3-(4-(trifluoromethyl)phenyl)hexan-3-yl)-1H-indazol-4-yl)ethanesulfonamide] returned an IC50 of 0.01 µM.
Then `CCC(O)C(CC)(c1ccc(C(F)(F)F)cc1)n1ncc2c(NS(C)(=O)=O)cc(F)cc21` (single isomer, unassigned) [Compound 17, N-(6-fluoro-1-(4-hydroxy-3-(4-(trifluoromethyl)phenyl)hexan-3-yl)-1H-indazol-4-yl)methanesulfonamide], with 0.021 µM.
For `CCC(O)C(CC)(c1ccc(Br)cc1)n1ncc2c(NS(C)(=O)=O)cccc21` (single isomer, unassigned) [Compound 7, N-(1-(3-(4-bromophenyl)-4-hydroxyhexan-3-yl)-1H-indazol-4-yl)methanesulfonamide] the value was 1.99 µM; for `CCC(O)C(CC)(c1ccc(C#N)cc1)n1ncc2c(NS(C)(=O)=O)cc(F)cc21` (single isomer, unassigned) [Compound 20, N-(1-(3-(4-cyanophenyl)-4-hydroxyhexan-3-yl)-6-fluoro-1H-indazol-4-yl)methanesulfonamide], 0.138 µM; for `CCC(O)C(CC)(c1ccc(C#N)cc1)n1ncc2c(NS(C)(=O)=O)cccc21` (single isomer, unassigned) [Compound 15, N-(1-(3-(4-cyanophenyl)-4-hydroxyhexan-3-yl)-1H-indazol-4-yl)methanesulfonamide], 0.056 µM.
For `CCC(O)C(CC)(c1ccc(S(F)(F)(F)(F)F)cc1)n1ncc2c(NS(C)(=O)=O)cccc21` (single isomer, unassigned) [Compound 25, N-(1-{4-hydroxy-3-[4-(pentafluoro-λ^6-sulfanyl)phenyl]hexan-3-yl}-1H-indazol-4-yl)methanesulfonamide] the value was 0.048 µM; for `CCC(c1ccc(C(F)(F)F)cc1)(C(O)C(F)F)n1ncc2c(NS(C)(=O)=O)cccc21` (single isomer, unassigned) [Compound 48, N-(1-(1,1-difluoro-2-hydroxy-3-(4-(trifluoromethyl)phenyl)pentan-3-yl)-1H-indazol-4-yl)methanesulfonamide], 0.006 µM; for `CCC(O)C(CC(F)F)(c1ccc(C(F)(F)F)cc1)n1ncc2c(NS(C)(=O)=O)cccc21` (single isomer, unassigned) [Compound 41, N-(1-(1,1-difluoro-4-hydroxy-3-(4-(trifluoromethyl)phenyl)hexan-3-yl)-1H-indazol-4-yl)methanesulfonamide], 0.543 µM.
Regarding `CCC(c1ccc(C#N)cc1)(C(C)O)n1ncc2c(NS(C)(=O)=O)cccc21` (single isomer, unassigned) [Compound 13, N-(1-(-3-(4-cyanophenyl)-2-hydroxypentan-3-yl)-1H-indazol-4-yl)methanesulfonamide], inhibition was half-maximal at 0.225 µM (IC50).
Then `CCC(c1ccc(C(F)(F)F)cc1)(C(O)C(F)F)n1ncc2c(NS(C)(=O)=O)cc(F)cc21` (single isomer, unassigned) [Compound 51, N-(1-(1,1-difluoro-2-hydroxy-3-(4-(trifluoromethyl)phenyl)pentan-3-yl)-6-fluoro-1H-indazol-4-yl) methanesulfonamide], with 0.013 µM; and `CCS(=O)(=O)Nc1cccc2c1cnn2C(CC(F)F)(c1ccc(C(F)(F)F)cc1)C(C)O` (single isomer, unassigned) [Compound 58, N-(1-(1,1-difluoro-4-hydroxy-3-(4-(trifluoromethyl)phenyl)pentan-3-yl)-1H-indazol-4-yl)ethanesulfonamide], with 0.038 µM.
Then `CCC(O)C(CC)(c1ccc(Br)cc1)n1ncc2c(NS(C)(=O)=O)cccc21` (single isomer, unassigned) [Compound 5, N-(1-(3-(4-bromophenyl)-4-hydroxyhexan-3-yl)-1H-indazol-4-yl)methanesulfonamide], with 0.008 µM; and `CC(O)C(CC(F)F)(c1ccc(C(F)(F)F)cc1)n1ncc2c(NS(C)(=O)=O)cccc21` (single isomer, unassigned) [Compound 38, N-(1-(1,1-difluoro-4-hydroxy-3-(4-(trifluoromethyl)phenyl)pentan-3-yl)-1H-indazol-4-yl)methanesulfonamide], with 0.596 µM.
For `CCC(c1ccc(C(F)(F)F)cc1)(C(C)O)n1ncc2c(NS(C)(=O)=O)cc(F)cc21` (single isomer, unassigned) [Compound 32, N-(6-fluoro-1-(2-hydroxy-3-(4-(trifluoromethyl)phenyl)pentan-3-yl)-1H-indazol-4-yl)methanesulfonamide] the value was 0.027 µM; for `CS(=O)(=O)Nc1cccc2c1cnn2C(CO)(CC(F)F)c1ccc(C(F)(F)F)cc1` (single isomer, unassigned) [Compound 43, N-(1-(4,4-difluoro-1-hydroxy-2-(4-(trifluoromethyl)phenyl)butan-2-yl)-1H-indazol-4-yl)methanesulfonamide], 0.388 µM.

For the origin of these results see patent publication US9511052B2, “Mineralocorticoid receptor antagonists” (Merck Sharp & Dohme Corp., priority 2012, dated 2016).
